This is an account of results in patent EP2594271A1, “2-[(3,5-difluoro-3'-methoxy-1,1'-biphenyl-4-yl)amino]nicotinic acid for the treatment of psoriasis” (Almirall, S.A., priority 2011, dated 2013).

In one data set the test system is psoriasis. The note with it: 190 subjects with active psoriatic arthritis and psoriasis, 24 weeks; people with mild to moderate psoriasis; cited from earlier work.
Details of data set [1]: species or system mice. The note with it: mouse, in vivo, ip.
The test system of a further data set is epidermal hyperplasia. Put plainly: rat model of TPA-induced epidermal hyperplasia. Type of data set: in vivo, Wistar rats. The note with it: rat dorsal skin. The method, then: A rat model of epidermal hyperplasia was used to test the pharmacological activity of 2-[(3,5-difluoro-3'-methoxy-1,1'-biphenyl-4-yl)amino]nicotinic acid.
Wistar rats (200- 250 g) were obtained from Harland (Sant Feliu de Codines, Spain) and maintained in standard Chow diet with light:dark cycles and allowed to feed ad libitum during all procedures. TPA (12-O-tetradecanoylphorbol-13-acetate) was purchased from Sigma Chemicals and a stock solution of 10 mg/ml was prepared in acetone.
On the morning of day 1, the back of each animal (n=5) was shaved so that at least three 2x2 sq cm nude skin areas were uncovered. Six hours later, 200 µL of acetone (vehicle) or a solution of TPA ([…]) in acetone was applied onto the skin by employing a silicone pad in which three 2x2 sq cm areas had been cut out. Area A received acetone (vehicle), whereas B and C received TPA. Twenty-four hours after TPA application, a solution of the active ingredient 2-[(3,5-difluoro-3'-methoxy-1,1'-biphenyl-4-yl)amino]nicotinic acid (1% in acetone) was applied to area C, whereas the remainder areas received acetone. Treatment continued for 7 days with daily application of 2-[(3,5-difluoro-3'-methoxy-1,1'-biphenyl-4-yl)amino]nicotinic acid or acetone. Six hours after last application, animals were sacrificed and skin was excised and processed for histological examination using H/E staining. Hyperplasia was evaluated following a score of 0 (normal skin thickness, 2-3 layers) to 3 (marked hyperplastic epidermis, >8 cell layers) by a blinded expert pathologist.

Data set [2] deals with peripheral blood mononuclear cells. The data set is described as follows: in vitro assay using peripheral blood mononuclear cells. The class given is cell-based. The settings on record: compared with leflunomide.
[3] abbreviates: topical 1% in acetone, 7 applications, histology day 8.

Entries after “also recorded” stand apart in the source; their conditions may differ.

For the molecule `Cc1oncc1C(=O)Nc1ccc(C(F)(F)F)cc1` [leflunomide, 4-Isoxazolecarboxamide, 5-methyl-N-[4-(trifluoromethyl)phenyl]-], the “benefit compared with placebo” value in the data set on psoriasis was “only a moderate benefit compared with placebo”.
For `COc1cccc(-c2cc(F)c(Nc3ncccc3C(=O)O)c(F)c2)c1` [2-[(3,5-difluoro-3'-methoxy-1,1'-biphenyl-4-yl)amino]nicotinic acid], in data set [1], the “levels of bilirrubin in plasma” value was “does not show an increase” and the “levels of transaminases in plasma” value is on record as “does not show an increase”. Also, in the data set with epidermal hyperplasia (setting [3]), the “inflammation induced by TPA (dermal)” value is “counteracts; also recorded: able to reduce epidermal hyperplasia and dermal inflammation”; the “mixed perivascular mononuclear infiltration (macrophages, lymphocytes and mastocytes)” value was “greatly diminished”. Also, in the data set on epidermal hyperplasia (topical once daily application of 1% in acetone for 7 days, H/E staining, day 8), the “hyperplasia (histological score 0 to 3)” value is reported as “reverted; also recorded: counteracts; also recorded: able to reduce epidermal hyperplasia”. The potency entry in data set [2] is given as “much higher potency than leflunomide”.
